In BigSolDB 2.1:

Cc1cc(=O)c(C(=O)N[C@@H](C(=O)N[C@@H]2C(=O)N3C(C(=O)O)=C(CSc4nnnn4C)CS[C@H]23)c2ccc(O)cc2)c[nH]1
solubility (mole fraction)
Settings | 278.2 K | 283.2 K | 288.2 K | 293.2 K | 298.2 K | 303.2 K
in ethanol | 0.000445 | 0.000508 | 0.000592 | 0.00069 | 0.000834 | 0.00101
in isopropanol | 0.000118 | 0.00015 | 0.000187 | 0.000236 | 0.000297 | 0.000376
in n-butanol | 9.53e-05 | 0.000115 | 0.000139 | 0.000166 | 0.0002 | 0.000245
in n-propanol | 0.000242 | 0.00027 | 0.000305 | 0.000348 | 0.000407 | 0.000479
in water | 4.04e-07 | 4.82e-07 | 5.8e-07 | 6.99e-07 | 8.5e-07 | 1.04e-06
